The record followed here is US20230009608A1, “GRK2 INHIBITORS AND USES THEREOF” (Cygnal Therapeutics, Inc., priority 2020, published 2023).

For the experiment, the system named is PAXF1657 control empty vector cell line. The experiment in a line: 7-day proliferation assay, PAXF1657 control empty vector cell line (Example 9). The conditions noted are these: 168 h; Cell Line: PAXF1657 empty vector (EV) cell line; 7-day; read-out: C: 7-day proliferation assay: IC50 GeoMean. The experiment is classed as cell-based. The protocol: In order to identify compounds specific for GRK2, we generated two isogenic cell line pairs of the pancreatic cancer cell line PAXF1657, a pair of cells stably overexpressing GRK2 cDNA or the control empty vector and a cell line pair of PAXF1657 GRK2 knockout clonal cells versus non-targeting control clonal cells.
Proliferation Assay: Cellular anti-proliferative activity of compounds was assessed by using the pancreatic cancer cell line, PAXF1657, stably overexpressing GRK2 cDNA or the control empty vector, as well as the parental urinary bladder cancer cell line, 5637. In addition, we also took advantage of GRK2 knockout cell lines that were generated via CRISPR. Cell lines were seeded into tissue culture treated, white-walled, 96-well plates at a density of 500 cells/well in RPMI1640 media supplemented with 10% H.I. FBS and penicillin/streptomycin. Plates were incubated overnight at 37° C., 5% CO2 to allow cells to adhere to the wells. GRK2 inhibitors were added to the cells using a 10-point dilution series with a final concentration ranging from 30 μM-0.0002 μM in 0.3% DMSO. At the time of compound addition, a set of plates, that were not treated with compounds, were collected and cell viability was measured using CellTiter-Glo (Promega). CellTiter-Glo reagent was added to the designed plates and luminescence was measuring using a Biotek Synergy plate reader. The compound treated cells were incubated for 3 days at 37° C., 5% CO2. The media was then aspirated from each well and replaced with fresh media containing GRK2 inhibitors. The compound treated cells were then incubated for an additional 4 days at 37° C., 5% CO2. Cell viability was assessed and at end of the 7-day compound treatment by CellTiterGlo.
With `Cn1c(CNc2cccc(C(=O)NCc3cccc(CN4CCOCC4)c3)c2)nnc1-c1ccncn1`, the IC50 is greater than 10 µM.
Consider `Cn1c(CNc2cccc(C(=O)NC3(c4cccnc4)CCC3)c2)nnc1-c1ccncn1`, for which the IC50 was greater than 10 µM.
With `Cc1nc(CNC(=O)c2cccc(NCc3nnc(-c4ccncn4)n3C)c2)c[nH]1`, the IC50 was greater than 10 µM.
The same measure for `Cn1c(CNc2cccc(C(=O)NC3(c4nccs4)CCCC3)c2)nnc1-c1ccncn1`: greater than 10 µM; for `Cn1c(CNc2cccc(C(=O)NCc3ncoc3C(F)(F)F)c2)nnc1-c1ccncn1`: greater than 10 µM.
On to `Cn1c(CNc2cccc(C(=O)NCc3cc(C(F)(F)F)ccn3)c2)nnc1-c1ccncn1`, for which the IC50 is greater than 10 µM.
As for `CN1CCN(c2nccc(CNC(=O)c3cccc(NCc4nnc(-c5ccncn5)n4C)c3)n2)CC1`, the IC50 was greater than 10 µM.
Regarding `Cn1c(CNc2cccc(C(=O)NCc3ccc(Cn4cncn4)cc3)c2)nnc1-c1ccncn1`, the IC50 is greater than 10 µM.
Regarding `Cn1c(CNc2cccc(C(=O)NCc3cc4n(n3)CCCC4)c2)nnc1-c1ccncn1`, the IC50 stood at 2.21 µM.
On to `Cn1cc(C(NC(=O)c2cccc(NCc3nnc(-c4ccncn4)n3C)c2)c2ccc(F)cc2)cn1` (centres unmarked), for which the IC50 was greater than 10 µM.
With `Cc1ncc(CNC(=O)c2cccc(NCc3nnc(-c4ccncn4)n3C)c2)s1`, the IC50 was greater than 10 µM.
As for `CCc1cc(CNC(=O)c2cccc(NCc3nnc(-c4ccncn4)n3C)c2)no1`, the IC50 was 3.55 µM.
`Cn1c(CNc2cccc(C(=O)NCc3nc4ccccc4o3)c2)nnc1-c1ccncn1`: the IC50 is greater than 10 µM.
The same measure for `C[C@H](NC(=O)c1cccc(NCc2nnc(-c3ccncn3)n2C)c1)c1cnccn1`: 1.51 µM; for `Cn1c(CNc2cccc(C(=O)NC(c3ncccn3)C(C)(C)C)c2)nnc1-c1ccncn1` (centres unmarked): greater than 10 µM; for `Cc1ccnc(C(C)NC(=O)c2cccc(NCc3nnc(-c4ccncn4)n3C)c2)n1` (centres unmarked): greater than 10 µM.
On to `C[C@H](NC(=O)c1cccc(NCc2nnc(-c3ccncn3)n2C)c1)c1ccnn1C`, for which the IC50 was greater than 10 µM.
Regarding `COCC(C)(NC(=O)c1cccc(NCc2nnc(-c3ccncn3)n2C)c1)c1ccccc1` (centres unmarked), the IC50 turned out to be 0.88 µM.
To `Cn1c(CNc2cccc(C(=O)NC(C)(C)c3ncccn3)c2)nnc1-c1ccncn1` belongs greater than 10 µM.
The same measure for `Cn1c(CNc2cccc(C(=O)NC3(c4ccccn4)CCC3)c2)nnc1-c1ccncn1`: greater than 10 µM; for `Cn1c(CNc2cccc(C(=O)NC3(c4ccc(F)cn4)CC3)c2)nnc1-c1ccncn1`: 0.291 µM; for `Cc1nc(C2(NC(=O)c3cccc(NCc4nnc(-c5ccncn5)n4C)c3)CC2)cs1`: 4.74 µM.
In the case of `Cn1c(CNc2cccc(C(=O)NCc3nncn3C3CC3)c2)nnc1-c1ccncn1`, the IC50 was greater than 10 µM.
To `Cn1c(CNc2cccc(C(=O)NCc3cccc(C(F)(F)F)n3)c2)nnc1-c1ccncn1` belongs 1.86 µM.
For `CCC(NC(=O)c1cccc(NCc2nnc(-c3ccncn3)n2C)c1)c1ncccn1` (centres unmarked), the IC50 came out at 5.39 µM.
The same measure for `Cc1nc2n(n1)CCCC2NC(=O)c1cccc(NCc2nnc(-c3ccncn3)n2C)c1` (centres unmarked): greater than 10 µM; for `Cn1c(CNc2cccc(C(=O)N[C@H]3c4ccccc4CC[C@H]3O)c2)nnc1-c1ccncn1`: greater than 10 µM.
Take `Cn1c(CNc2cccc(C(=O)NC3CCCc4ncccc43)c2)nnc1-c1ccncn1` (centres unmarked): the IC50 was found to be 2.5 µM.
Turning to `CC1CC(NC(=O)c2cccc(NCc3nnc(-c4ccncn4)n3C)c2)c2ncnn21` (centres unmarked), the IC50 was greater than 10 µM.
As for `Cn1c(CNc2cccc(C(=O)N[C@H]3CCOc4c(F)cc(F)cc43)c2)nnc1-c1ccncn1`, the IC50 was greater than 10 µM.
The same measure for `Cn1c(CNc2cccc(C(=O)NC(CO)c3cccc(F)c3)c2)nnc1-c1ccncn1` (centres unmarked): 2.48 µM.
On to `CC(O)C(NC(=O)c1cccc(NCc2nnc(-c3ccncn3)n2C)c1)c1ccccc1` (centres unmarked), for which the IC50 was 1.76 µM.
To `Cn1c(CNc2cccc(C(=O)NCc3ccc(-n4cncn4)cc3)c2)nnc1-c1ccncn1` belongs greater than 10 µM.
The same measure for `CC(NC(=O)c1cccc(NCc2nnc(-c3ccncn3)n2C)c1)c1nccn1-c1ccccc1` (centres unmarked): greater than 10 µM.
For `COc1cnccc1CNC(=O)c1cccc(NCc2nnc(-c3ccncn3)n2C)c1`, the IC50 was greater than 10 µM.
The same measure for `Cn1c(CNc2cccc(C(=O)NCc3ccncc3)c2)nnc1-c1ccncn1`: greater than 10 µM; for `CC(NC(=O)c1cccc(NCc2nnc(-c3ccncn3)n2C)c1)c1ccn[nH]1` (centres unmarked): greater than 10 µM.
For `Cn1c(CNc2cccc(C(=O)NCc3ccc4c(c3)CNC4=O)c2)nnc1-c1ccncn1`, the IC50 is greater than 10 µM.
As to `CNc1cc(CNC(=O)c2cccc(NCc3nnc(-c4ccncc4)[nH]3)c2)ccn1`, the IC50 was greater than 10 µM.
For `Cn1c(CNC(=O)c2cccc(NCc3nnc(-c4ccncc4)[nH]3)c2)nnc1C1CC1`, the IC50 is greater than 10 µM.
`CC(C)n1ncnc1CNC(=O)c1cccc(NCc2nnc(-c3ccncc3)[nH]2)c1`: the IC50 is greater than 10 µM.
With `O=C(NCc1nccn1CC(F)(F)F)c1cccc(NCc2nnc(-c3ccncc3)[nH]2)c1`, the IC50 is greater than 10 µM.
As to `O=C(NC1(c2cccnc2)CC1)c1cccc(NCc2nnc(-c3ccncc3)[nH]2)c1`, the IC50 is greater than 10 µM.
On to `O=C(NCc1nnc2n1CCCCC2)c1cccc(NCc2nnc(-c3ccncc3)[nH]2)c1`, for which the IC50 is greater than 10 µM.
On to `O=C(NC1(c2ccncc2)CC1)c1cccc(NCc2nnc(-c3ccncc3)[nH]2)c1`, for which the IC50 is greater than 10 µM.
Consider `O=C(NCCc1ncccn1)c1cccc(NCc2nnc(-c3ccncc3)[nH]2)c1`, for which the IC50 was greater than 10 µM.
Regarding `Cn1cc2c(n1)CCCC2NC(=O)c1cccc(NCc2nnc(-c3ccncc3)[nH]2)c1` (centres unmarked), the IC50 is greater than 10 µM.
Turning to `Cc1cc(CNC(=O)c2cccc(NCc3nnc(-c4ccncc4)[nH]3)c2)ccn1`, the IC50 was greater than 10 µM.
For `Cc1nc(C)c(CNC(=O)c2cccc(NCc3nnc(-c4ccncc4)[nH]3)c2)o1`, the IC50 was greater than 10 µM.
As to `CCn1nc(C)c(CNC(=O)c2cccc(NCc3nnc(-c4ccncc4)[nH]3)c2)c1C`, the IC50 is greater than 10 µM.
Consider `O=C(NC[C@H]1COCCO1)c1cccc(NCc2nnc(-c3ccncc3)[nH]2)c1`, for which the IC50 turned out to be 1.12 µM.
In the case of `O=C(NCc1ccncc1OCC(F)F)c1cccc(NCc2nnc(-c3ccncc3)[nH]2)c1`, the IC50 is greater than 10 µM.
Regarding `O=C(NC1(c2ncccn2)CC1)c1cccc(NCc2nnc(-c3ccncc3)[nH]2)c1`, the IC50 was greater than 10 µM.
For the compound `CCn1nnc(C)c1CNC(=O)c1cccc(NCc2nnc(-c3ccncc3)[nH]2)c1`, the IC50 is 0.651 µM.
Turning to `C[C@H](NC(=O)c1cccc(NCc2nnc(-c3ccncc3)[nH]2)c1)c1ccncc1`, the IC50 was greater than 10 µM.
Consider `CO[C@H]1C[C@H](CNC(=O)c2cccc(NCc3nnc(-c4ccncc4)[nH]3)c2)C1`, for which the IC50 was greater than 10 µM.
Take `Cn1c(CNC(=O)c2cccc(NCc3nnc(-c4ccncc4)[nH]3)c2)nnc1C1CCC1`: the IC50 was greater than 10 µM.
Consider `O=C(NCC1(F)CCC1)c1cccc(NCc2nnc(-c3ccncc3)[nH]2)c1`, for which the IC50 stood at 3.22 µM.
As for `CC1(CNC(=O)c2cccc(NCc3nnc(-c4ccncc4)[nH]3)c2)CCCOC1` (centres unmarked), the IC50 is greater than 10 µM.
The same measure for `COc1cnccc1C(C)NC(=O)c1cccc(NCc2nnc(-c3ccncc3)[nH]2)c1` (centres unmarked): greater than 10 µM.
The same measure for `CCn1nccc1C(C)NC(=O)c1cccc(NCc2nnc(-c3ccncc3)[nH]2)c1` (centres unmarked): greater than 10 µM; for `CN1CCC(CNC(=O)c2cccc(NCc3nnc(-c4ccncc4)[nH]3)c2)C1=O` (centres unmarked): greater than 10 µM.
